The text below walks through data of ChEMBL document CHEMBL4610100, “Jatrophane Diterpenoids from Euphorbia esula as Inhibitors of RANKL-Induced Osteoclastogenesis” (J Nat Prod, 2020).

Some results are limits rather than exact numbers.

The subject of this experiment is BMDM. Put plainly: Anti-osteoporosis activity in C57BL/6 mouse bone marrow macrophages assessed as inhibition of M-CSF/GST-tagged recombinant RANKL-induced osteoclast differentiation measured after 5 days by TRAP staining based assay. It is filed as functional, cell-based. The note with it: C57BL/6, BMDM, 120 h.

Usually IC50 stands for the concentration needed to halve the response being measured. Regarding `C=C1[C@H](OC(=O)c2ccccc2)[C@@H](O)[C@@H](OC(=O)c2cccnc2)C(C)(C)/C=C/[C@@H](C)C(=O)[C@@]2(O)C[C@H](C)[C@H](OC(C)=O)[C@@H]2[C@H]1OC(C)=O`, the IC50 is 10 µM. As to `C=C1[C@H](OC(=O)c2ccccc2)[C@@H](OC(C)=O)[C@@H](OC(=O)c2cccnc2)C(C)(C)/C=C/[C@@H](C)C(=O)[C@@]2(O)C[C@H](C)[C@H](OC(C)=O)[C@@H]2[C@H]1OC(C)=O`, the IC50 was more than 10 µM.
